Measurements as given in PubChem BioAssay AID1918946 (Molecular Pharmacology Branch, DTP, NCI, 2023).

Tested on: 885512-296-R-J2-PDC complex spheroid viability
Assay: Anticancer human tumor 885512-296-R-J2-PDC patient-derived breast carcinoma cell line growth inhibition
Conditions: for IC50: curve of first compound; for viability, T/C: stronger effect = lower value
Summary of the method: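 Multicellular complex spheroids of tumor cells with human endothelial cells (HUVEC) and mesenchymal stem cells; the LSD1 inhibitor iadademstat was combined with standard-of-care or investigational agents. Top concentration at or near clinical Cmax, half-log dilutions; final DMSO ≤0.25%.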

[1] = second compound 0.1 µM, first compound 0.000316 µM
[2] = second compound 0.1 µM, first compound 0.001 µM
[3] = second compound 0.1 µM, first compound 0.00316 µM
[4] = second compound 0.1 µM, first compound 0.01 µM
[5] = second compound 0.1 µM, first compound 0.0316 µM
[6] = second compound 0.1 µM, first compound 0.1 µM
[7] = second compound 0.316 µM, first compound 0.000316 µM
[8] = second compound 0.316 µM, first compound 0.001 µM
[9] = second compound 0.316 µM, first compound 0.00316 µM
[10] = second compound 0.316 µM, first compound 0.01 µM
[11] = second compound 0.316 µM, first compound 0.0316 µM
[12] = second compound 0.316 µM, first compound 0.1 µM
[13] = second compound 1 µM, first compound 0.000316 µM
[14] = second compound 1 µM, first compound 0.001 µM
[15] = second compound 1 µM, first compound 0.00316 µM
[16] = second compound 1 µM, first compound 0.01 µM
[17] = second compound 1 µM, first compound 0.0316 µM
[18] = second compound 1 µM, first compound 0.1 µM
[19] = second compound 3.16 µM, first compound 0.000316 µM
[20] = second compound 3.16 µM, first compound 0.001 µM
[21] = second compound 3.16 µM, first compound 0.00316 µM
[22] = second compound 3.16 µM, first compound 0.01 µM
[23] = second compound 3.16 µM, first compound 0.0316 µM
[24] = second compound 3.16 µM, first compound 0.1 µM
[25] = second compound 10 µM, first compound 0.000316 µM
[26] = second compound 10 µM, first compound 0.001 µM
[27] = second compound 10 µM, first compound 0.00316 µM
[28] = second compound 10 µM, first compound 0.01 µM
[29] = second compound 10 µM, first compound 0.0316 µM
[30] = second compound 10 µM, first compound 0.1 µM
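Further: spheroids exposed to agents for 7 days before viability read.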

CC(C)CC(NC(=O)C(Cc1ccccc1)NC(=O)c1cnccn1)B(O)O (stereo not given) + NC1CC1c1ccc(-c2cccc(O)c2)cc1
IC50 (second compound 0.1 µM): < 0.316 nM
IC50 (second compound 0.316 µM): < 0.316 nM
IC50 (second compound 1 µM): < 0.316 nM
IC50 (second compound 3.16 µM): < 0.316 nM
IC50 (second compound 10 µM): < 0.316 nM
viability, T/C [1]: 18.7%
viability, T/C [2]: 1.21%
viability, T/C [3]: 7.48%
viability, T/C [4]: 0.02%
viability, T/C [5]: 0.02%
viability, T/C [6]: 0.09%
viability, T/C [7]: 19%
viability, T/C [8]: 0.69%
viability, T/C [9]: 0.05%
viability, T/C [10]: 0.01%
viability, T/C [11]: 0.01%
viability, T/C [12]: 0.08%
viability, T/C [13]: 18.5%
viability, T/C [14]: 0.65%
viability, T/C [15]: 0.02%
viability, T/C [16]: 0.01%
viability, T/C [17]: 0.01%
viability, T/C [18]: 0.09%
viability, T/C [19]: 15.5%
viability, T/C [20]: 0.58%
viability, T/C [21]: 0.16%
viability, T/C [22]: 0.01%
viability, T/C [23]: 0.02%
viability, T/C [24]: 0.1%
viability, T/C [25]: 11.2%
viability, T/C [26]: 0.27%
viability, T/C [27]: 0.11%
viability, T/C [28]: 0.12%
viability, T/C [29]: 0.14%
viability, T/C [30]: 0.14%

CC(C)CC(NC(=O)CNC(=O)c1cc(Cl)ccc1Cl)B1OC(=O)CC(CC(=O)O)(C(=O)O)O1 (stereo not given) + NC1CC1c1ccc(-c2cccc(O)c2)cc1
IC50 (second compound 0.1 µM): 4.92 nM
IC50 (second compound 0.316 µM): 5.16 nM
IC50 (second compound 1 µM): 5.08 nM
IC50 (second compound 3.16 µM): 4.23 nM
IC50 (second compound 10 µM): 3.35 nM
viability, T/C [1]: 125%
viability, T/C [2]: 126%
viability, T/C [3]: 75%
viability, T/C [4]: 10.1%
viability, T/C [5]: 1.77%
viability, T/C [6]: 0.48%
viability, T/C [7]: 130%
viability, T/C [8]: 113%
viability, T/C [9]: 79.6%
viability, T/C [10]: 10.3%
viability, T/C [11]: 2.04%
viability, T/C [12]: 0.45%
viability, T/C [13]: 132%
viability, T/C [14]: 116%
viability, T/C [15]: 78.6%
viability, T/C [16]: 9.38%
viability, T/C [17]: 1.61%
viability, T/C [18]: 0.42%
viability, T/C [19]: 121%
viability, T/C [20]: 103%
viability, T/C [21]: 65.7%
viability, T/C [22]: 8.61%
viability, T/C [23]: 1.75%
viability, T/C [24]: 0.31%
viability, T/C [25]: 82.8%
viability, T/C [26]: 87.5%
viability, T/C [27]: 52%
viability, T/C [28]: 5.61%
viability, T/C [29]: 1.05%
viability, T/C [30]: 0.22%

COc1cc(Nc2ncc3c(n2)-c2ccc(Cl)cc2C(c2c(F)cccc2OC)=NC3)ccc1C(=O)O + NC1CC1c1ccc(-c2cccc(O)c2)cc1
IC50 (second compound 0.1 µM): < 3.16 nM
IC50 (second compound 0.316 µM): < 3.16 nM
IC50 (second compound 1 µM): < 3.16 nM
IC50 (second compound 3.16 µM): < 3.16 nM
IC50 (second compound 10 µM): < 3.16 nM
viability, T/C [3]: 32%
viability, T/C [4]: 34%
viability, T/C [5]: 17.9%
viability, T/C [6]: 23.5%
viability, T/C (second compound 0.1 µM, first compound 0.316 µM): 21.7%
viability, T/C (second compound 0.1 µM, first compound 1 µM): 20.1%
viability, T/C [9]: 30.3%
viability, T/C [10]: 35.4%
viability, T/C [11]: 20.9%
viability, T/C [12]: 21.7%
viability, T/C (second compound 0.316 µM, first compound 0.316 µM): 25.4%
viability, T/C (second compound 0.316 µM, first compound 1 µM): 19.1%
viability, T/C [15]: 33.5%
viability, T/C [16]: 35.8%
viability, T/C [17]: 20.4%
viability, T/C [18]: 21.6%
viability, T/C (second compound 1 µM, first compound 0.316 µM): 22.1%
viability, T/C (second compound 1 µM, first compound 1 µM): 19.6%
viability, T/C [21]: 27%
viability, T/C [22]: 29.8%
viability, T/C [23]: 19.8%
viability, T/C [24]: 13.2%
viability, T/C (second compound 3.16 µM, first compound 0.316 µM): 19.4%
viability, T/C (second compound 3.16 µM, first compound 1 µM): 15.4%
viability, T/C [27]: 15%
viability, T/C [28]: 20.2%
viability, T/C [29]: 14.2%
viability, T/C [30]: 8.64%
viability, T/C (second compound 10 µM, first compound 0.316 µM): 11.8%
viability, T/C (second compound 10 µM, first compound 1 µM): 12.7%
